# Assay results reported in patent US20070060621A1, “Methods and compositions for the administration of prodrugs of proton pump inhibitors” (priority 2004, published 2007).
# Legend:
# Type in all cases: physicochemical
# [1] = Hygroscopicity of compound 1 on storage
# Method: The physicochemical properties of compound 1 were analyzed.
# [2] = Stability profile at 25° C. in buffered aqueous solutions
# Source text: The base-catalyzed degradation is unexpected because the commercial proton pump inhibitors are stabilized in aqueous solutions by adjusting the solution to high pH.
# [3] = Stability of compound 1 at 0.02 mg/mL at 25° C. in water, NaCl salt and phosphate buffer; conditions: for % Remaining: 25° C., 0.02 mg/mL; for Half Life (t½) / Rate Constant (k) / Shelf life (t90%): first order decay from 3-29 days
# Method: FIG. 1 is a plot of the % of the original concentration of compound remaining over time. The original concentration of compound 1 was 0.02 mg/mL, and stability was assessed at 25° C. in 1) water, 2) NaCl salt (μ=0.15), 3) NaCl salt (μ=0.5), 4) phosphate buffer (pH 7.0, μ=0.15), and 5) phosphate buffer (pH 7.0, μ=0.5).
# FIG. 2 is a log plot of the data of FIG. 1.
# The stability of compound 1 at a concentration of 0.02 mg/mL in water at 25° C. was assessed in 1) water, 2) NaCl salt (μ=0.15), 3) NaCl salt (μ=0.5), 4) phosphate buffer (pH 7.0, μ=0.15), and 5) phosphate buffer (pH 7.0, μ=0.5). For the buffer solutions, the ionic strength (μ) was adjusted using sodium chloride, and the buffer concentration of the two solutions was equal (0.1 M). The amount of remaining compound 1 is presented as the % of the original concentration of 0.02 mg/mL for each sample in Table 3a and in FIG. 1.
# [4] = pH 3, Citric Acid (0.1 M)/Na2HPO4 (0.2 M)
# [5] = pH 5, Citric Acid (0.1 M)/Na2HPO4 (0.2 M)
# [6] = pH 7, sodium phosphate (0.1-0.2 M)
# [7] = pH 7.4, sodium phosphate (0.1-0.2 M)
# [8] = pH 9, sodium phosphate (0.1-0.2 M)
# [9] = pH 10, sodium phosphate (0.1-0.2 M)
# [10] = Na phosphate buffer, u = 0.15, pH 7.0, 25° C.
# [11] = Na phosphate buffer, u = 0.5, pH 7.0, 25° C.
smiles,measurement,setting,value
COc1ccc2c(c1)nc([S+]([O-])Cc1ncc(C)c(OC)c1C)n2S(=O)(=O)c1ccc(OCC(=O)O)cc1 (centres unmarked) [Compound 1],hygroscopicity,[1]; 14 days of storage at 25° C. at 75% relative humidity,hygroscopic
same,weight gain,[1]; after 14 days of storage at 25° C. at 75% relative humidity,9%
same,Degradation Rate Constant (k),[2]; No buffer,0.0002 h⁻¹
same,Half-life (t1/2),[2]; No buffer,2863.6 h
same,Shelf life (t90%),[2]; No buffer,435.4 h
same,Degradation Rate Constant (k),"[2]; pH 1, 0.1 M HCl",0.194 h⁻¹
same,Half-life (t1/2),"[2]; pH 1, 0.1 M HCl",3.6 h
same,Shelf life (t90%),"[2]; pH 1, 0.1 M HCl",0.5 h
same,Degradation Rate Constant (k),[2]; [4],0.009 h⁻¹
same,Half-life (t1/2),[2]; [4],78.0 h
same,Shelf life (t90%),[2]; [4],11.9 h
same,Degradation Rate Constant (k),[2]; [5],0.008 h⁻¹
same,Half-life (t1/2),[2]; [5],89.2 h
same,Shelf life (t90%),[2]; [5],13.6 h
same,Degradation Rate Constant (k),[2]; [6],0.002 h⁻¹
same,Half-life (t1/2),[2]; [6],286.8 h
same,Shelf life (t90%),[2]; [6],43.6 h
same,Degradation Rate Constant (k),[2]; [7],0.002 h⁻¹
same,Half-life (t1/2),[2]; [7],291.2 h
same,Shelf life (t90%),[2]; [7],44.3 h
same,Degradation Rate Constant (k),[2]; [8],0.030 h⁻¹
same,Half-life (t1/2),[2]; [8],23.0 h
same,Shelf life (t90%),[2]; [8],3.5 h
same,Degradation Rate Constant (k),[2]; [9],0.298 h⁻¹
same,Half-life (t1/2),[2]; [9],2.3 h
same,Shelf life (t90%),[2]; [9],0.4 h
same,% Remaining,"[3]; Day 1, NaCL, u = 0.15 (pH 6.6)",84.134%
same,% Remaining,"[3]; Day 1, NaCL, u = 0.5 (pH 6.2)",87.598%
same,% Remaining,"[3]; Day 1, Phosphate buffer, u = 0.15 (pH 7.0)",96.294%
same,% Remaining,"[3]; Day 1, Phosphate buffer, u = 0.5 (pH 7.0)",96.709%
same,% Remaining,"[3]; Day 1, Water (pH 7.2)",92.212%
same,% Remaining,"[3]; Day 3, NaCL, u = 0.15 (pH 6.6)",76.960%
same,% Remaining,"[3]; Day 3, NaCL, u = 0.5 (pH 6.2)",80.750%
same,% Remaining,"[3]; Day 3, Phosphate buffer, u = 0.15 (pH 7.0)",90.597%
same,% Remaining,"[3]; Day 3, Phosphate buffer, u = 0.5 (pH 7.0)",90.087%
same,% Remaining,"[3]; Day 3, Water (pH 7.2)",86.085%
same,% Remaining,"[3]; Day 4, NaCL, u = 0.15 (pH 6.6)",77.037%
same,% Remaining,"[3]; Day 4, NaCL, u = 0.5 (pH 6.2)",78.348%
same,% Remaining,"[3]; Day 4, Phosphate buffer, u = 0.15 (pH 7.0)",87.434%
same,% Remaining,"[3]; Day 4, Phosphate buffer, u = 0.5 (pH 7.0)",85.994%
same,% Remaining,"[3]; Day 4, Water (pH 7.2)",86.410%
same,% Remaining,"[3]; Day 7, NaCL, u = 0.15 (pH 6.6)",75.398%
same,% Remaining,"[3]; Day 7, NaCL, u = 0.5 (pH 6.2)",76.513%
same,% Remaining,"[3]; Day 7, Phosphate buffer, u = 0.15 (pH 7.0)",80.995%
same,% Remaining,"[3]; Day 7, Phosphate buffer, u = 0.5 (pH 7.0)",76.165%
same,% Remaining,"[3]; Day 7, Water (pH 7.2)",84.569%
same,% Remaining,"[3]; Day 9, NaCL, u = 0.15 (pH 6.6)",71.861%
same,% Remaining,"[3]; Day 9, NaCL, u = 0.5 (pH 6.2)",74.482%
same,% Remaining,"[3]; Day 9, Phosphate buffer, u = 0.15 (pH 7.0)",76.176%
same,% Remaining,"[3]; Day 9, Phosphate buffer, u = 0.5 (pH 7.0)",70.768%
same,% Remaining,"[3]; Day 9, Water (pH 7.2)",84.452%
same,% Remaining,"[3]; Day 11, NaCL, u = 0.15 (pH 6.6)",73.763%
same,% Remaining,"[3]; Day 11, NaCL, u = 0.5 (pH 6.2)",74.312%
same,% Remaining,"[3]; Day 11, Phosphate buffer, u = 0.15 (pH 7.0)",74.520%
same,% Remaining,"[3]; Day 11, Phosphate buffer, u = 0.5 (pH 7.0)",67.826%
same,% Remaining,"[3]; Day 11, Water (pH 7.2)",86.930%
same,% Remaining,"[3]; Day 13, NaCL, u = 0.15 (pH 6.6)",72.390%
same,% Remaining,"[3]; Day 13, NaCL, u = 0.5 (pH 6.2)",71.691%
same,% Remaining,"[3]; Day 13, Phosphate buffer, u = 0.15 (pH 7.0)",68.020%
same,% Remaining,"[3]; Day 13, Water (pH 7.2)",83.661%
same,% Remaining,"[3]; Day 15, NaCL, u = 0.15 (pH 6.6)",67.858%
same,% Remaining,"[3]; Day 15, NaCL, u = 0.5 (pH 6.2)",68.167%
same,% Remaining,"[3]; Day 15, Phosphate buffer, u = 0.15 (pH 7.0)",62.389%
same,% Remaining,"[3]; Day 15, Phosphate buffer, u = 0.5 (pH 7.0)",52.494%
same,% Remaining,"[3]; Day 15, Water (pH 7.2)",80.913%
same,% Remaining,"[3]; Day 20, NaCL, u = 0.15 (pH 6.6)",64.953%
same,% Remaining,"[3]; Day 20, NaCL, u = 0.5 (pH 6.2)",65.173%
same,% Remaining,"[3]; Day 20, Phosphate buffer, u = 0.15 (pH 7.0)",54.360%
same,% Remaining,"[3]; Day 20, Phosphate buffer, u = 0.5 (pH 7.0)",44.057%
same,% Remaining,"[3]; Day 20, Water (pH 7.2)",78.768%
same,% Remaining,"[3]; Day 24, NaCL, u = 0.15 (pH 6.6)",64.848%
same,% Remaining,"[3]; Day 24, NaCL, u = 0.5 (pH 6.2)",65.753%
same,% Remaining,"[3]; Day 24, Phosphate buffer, u = 0.15 (pH 7.0)",50.246%
same,% Remaining,"[3]; Day 24, Phosphate buffer, u = 0.5 (pH 7.0)",39.181%
same,% Remaining,"[3]; Day 24, Water (pH 7.2)",79.915%
same,% Remaining,"[3]; Day 29, NaCL, u = 0.15 (pH 6.6)",62.731%
same,% Remaining,"[3]; Day 29, NaCL, u = 0.5 (pH 6.2)",62.867%
same,% Remaining,"[3]; Day 29, Phosphate buffer, u = 0.15 (pH 7.0)",43.321%
same,% Remaining,"[3]; Day 29, Phosphate buffer, u = 0.5 (pH 7.0)",32.626%
same,% Remaining,"[3]; Day 29, Water (pH 7.2)",78.412%
same,Half Life (t½),[3]; [10],24.063 days
same,Rate Constant (k),[3]; [10],0.0288 day⁻¹
same,Shelf life (t90%),[3]; [10],3.658 days
same,Half Life (t½),[3]; [11],17.589 days
same,Rate Constant (k),[3]; [11],0.0394 day⁻¹
same,Shelf life (t90%),[3]; [11],2.674 days
same,Half Life (t½),"[3]; NaCl, u = 0.15, pH 6.6, 25° C.",80.581 days
same,Rate Constant (k),"[3]; NaCl, u = 0.15, pH 6.6, 25° C.",0.0086 day⁻¹
same,Shelf life (t90%),"[3]; NaCl, u = 0.15, pH 6.6, 25° C.",12.251 days
same,Half Life (t½),"[3]; NaCl, u = 0.5, pH 6.6, 25° C.",75.326 days
same,Rate Constant (k),"[3]; NaCl, u = 0.5, pH 6.6, 25° C.",0.0092 day⁻¹
same,Shelf life (t90%),"[3]; NaCl, u = 0.5, pH 6.6, 25° C.",11.452 days
same,Half Life (t½),"[3]; water, pH 7.2, 25° C.",161.163 days
same,Rate Constant (k),"[3]; water, pH 7.2, 25° C.",0.0043 day⁻¹
same,Shelf life (t90%),"[3]; water, pH 7.2, 25° C.",24.502 days
